# Measured values as given in patent publication US20110064679A1 (priority 2008, published 2011).
# Read-outs that look alike come from different tables or passages of the source.
# Columns and labels:
# Mouse = settings: cited from earlier work
# in vivo = settings: male, C57BL/6, mouse, in vivo, po
# Procedure: (§1) This product was added to the normal diet and consumed over a period of eight hours. Food was selected as the vehicle of choice due to solubility concerns of the Oxaloacetate and because of the anticipated use of the product.
# (§2) C57BL/6 mice were used in this test. These mice were used because they are often used for longevity studies. Additionally, there is substantial information on Chronic exposure of the test compound with this breed of mice.
# (§3) Male mice were used in the Acute study because male mice were used in the Chronic exposure study. Each animal was housed separately and was 2 months of age.
# (§4) 5,000 mg/kg doses of the test compound were added to food, as it is anticipated that this product will be taken with a meal. Specifically,
# (§5) Each animal was caged separately. Prior to feeding, the bedding in the animal cage was changed. Food was prepared by dissolving 100 mg of the test compound with each ml of distilled water, then rolling the appropriate amount of food pellets in the amount of water until the waster was absorbed to obtain the proper dosage per animal. The test compound laced food was placed in the cage with the animal at the end of the day. […] Water was provided freely.
# (§6) After dosing the animals with the test compound, the animals were returned to a standard Ad Librium diet of food pellets and water.
# C57BL/6 mice [1] = test: in vivo
# Procedure: as §1, §2, §3, §4, §5, §6
# C57BL/6 mice [2] = settings: for Average increase in lifespan compared to the control group: daily dosage of 380 mg/kg, male C57BL/6 mice started at 9 months
# Procedure: as §1
# C57BL/6 mice were used in this test. These mice were used because they are often used for longevity studies.
# Male mice were used in the Chronic study because of their linear increase in weight with time. Females are less linear in their increase.
# Each animal was housed separately and the test was started with older animals (9 months of age) as human use is primarily anticipated to be in the older populations. The test was continued until all animals died.
# 25 Male C57BL/6 mice with the same day of birth (plus or minus 1 week) were selected for the test. The mice were evaluated for fasting glucose levels and weight, and broken into three similar groups based on equalization of weight and fasting glucose levels.
# Each animal was caged separately in a low stimulus environment and fed one of three diets. The first group was the Control Group, and it was fed an ad Librium balanced diet of mouse food pellets. The second group was calorie restricted 40% from the control group, as established by baseline feeding. […] At the end of 21 weeks, 3 mice from each group were sacrificed and their livers exhumed for genomic testing.
# The remaining groups of mice were allowed to live the rest of their lives on the individualized diets for humane reasons. The study has been ongoing for 18 months.
# The test compound laced food was placed in the cage with the animal at the end of each day. Water was provided freely.
# [3] = test system: genomic expression in the livers; test: Genomic expression in the livers, Affymatrix Mouse Genome 430 2.0 Array; assay type: in vivo; settings: for Percentage of genes moving in same direction as Calorie Restricted Mice (correlation): 1.7 fold expression cut-off
# Excerpt: In the calorie restricted mice, 1,763 genes changed in expression as compared to the control group. […] Comparison of common genes changed in expression between the Calorie Restricted group and the Oxaloacetic group indicated 363 genes in common.
# If a 1.7 fold expression cut-off is used to eliminate false positives (commonly used in the literature), the correlation between the two groups becomes 100% for the genes in common, which drops down to 36 highly expressed or repressed genes. A table of the genes affected is seen in Table 1.
# microbial growth = test: Preservative function: microbial growth in agar and cornmeal paste; settings: for microbial growth compared to control preparations: 8 mM in Nematode Growth Agar and cornmeal paste, monitored with a microscope
# Excerpt: These compositions where monitored over time with a microscope, and compared to control preparations.
# Caenorhabditis elegans = test: Lifespan toxicity test of preservative / acidizing agent; assay type: in vivo
# Procedure: (§7) The toxicity of the preservative was tested by examining the lifespan of Caenorhabditis elegans, Drosophila melanogaster, and Mus musculus.
# (§8) This dropped the pH of the agar from 6.0 to 5.3. The toxicity of the acidizing agent was tested by examining the lifespan of Caenorhabditis elegans.
# Drosophila melanogaster = test: Lifespan toxicity test of preservative; assay type: in vivo
# Procedure: as §7
# Mus musculus = settings: in vivo
# Procedure: as §7
# [4] = Acidizing function: pH of agar; assay type: physicochemical
# Procedure: as §8
compound,measurement,setting,value
CC(O)C(=O)O (centres unmarked) [Lactic Acid],LD50,"Mouse; Mouse data, injected, subcutaneous injection","4,500 mg/kg"
O=C(O)CC(O)C(=O)O (centres unmarked) [Malic Acid],LD50,"Mouse; mouse, in vivo, po","1,600 mg/kg"
O=C(O)CC(=O)C(=O)O [Oxaloacetic Acid],LD50 at 8 h,in vivo,> 5000 mg/kg
same,Survival at limitation dose,"C57BL/6 mice [1]; 5,000 mg/kg with food, five male C57BL/6 mice",All animals survived
same,LD50,"C57BL/6 mice [1]; male, C57BL/6, mouse, in vivo, po, 8 h","> 5,000 mg/kg"
same,Increase of residual lifespan over the control group,"C57BL/6 mice [2]; 0.4% in food, 380 mg/kg daily, started at age of 9 months",40%
same,Average increase in lifespan compared to the control group,C57BL/6 mice [2]; 0.4% in food,> 20%
same,Average increase in lifespan compared to the control group,"C57BL/6 mice [2]; 0.4% in food, 380 mg/kg",25%
same,Chronic toxicity compared to the control group,"C57BL/6 mice [2]; mouse, in vivo, 380 mg/kg",negative toxicity
same,Genes Moving in Opposite Direction as Calorie Restricted Mice,[3]; 1.7 Fold Cut Off,0
same,Genes Moving in Same Direction as Calorie Restricted Mice,[3]; 1.7 Fold Cut Off,36
same,Percentage of genes moving in same direction as Calorie Restricted Mice (correlation),[3],100%
same,Percentage of genes moving in same direction as Calorie Restricted Mice (correlation),[3]; listed as Oxaloacetate,100.0%
same,Directional correlation of genomic expression with the calorie restricted group,"[3]; 363 genes in common, no cut-off",98.1%
same,OX to C Change,"[3]; gene 9130019P20Rik, Affx No. 39136, mouse liver vs control",1
same,Genes changed in expression in common with the Calorie Restricted group,"[3]; liver, after 21 weeks",363
same,Number of genes changed in expression as compared with the control group,"[3]; liver, after 21 weeks on increasing diet",765
same,microbial growth compared to control preparations,microbial growth,control preparation had more microbial growth
same,smallest concentration producing a reduction in microbial activity,microbial growth; even when the salt is used,8 mM
same,lifespan (toxicity of the preservative),Caenorhabditis elegans,no decrease in lifespan
same,lifespan (toxicity of the acidizing agent),Caenorhabditis elegans; 8 mM in agar,no decrease in lifespan
same,lifespan (toxicity of the preservative),Drosophila melanogaster,no decrease in lifespan
same,lifespan (toxicity of the preservative),Mus musculus,no decrease in lifespan
same,smallest concentration producing a decrease in pH,[4],1 mM
same,pH of the agar after addition,"[4]; 8 mM in Nematode Growth Agar, dropped from 6.0",5.3
"O=C([O-])CC(=O)C(=O)O.[Na+] [sodium oxaloacetate salt, sodium oxaloacetate]",microbial growth compared to control preparations,microbial growth,control preparations had more microbial growth
